Source: patent US5609749A, “Electrochemical assay method with novel p-phenylenediamine compound” (Mochida Pharmaceutical Co., Ltd., priority 1993, dated 1997)

Assays:
[1] = target: T1, Horseradish peroxidase (HRPO) (Armoracia rusticana, UniProt P00433); test: Electron transfer activity 2: HRPO-hydrogen peroxide-compound, current at -80 mV or -150 mV; assay type: biochemical; conditions: -80 mV or -150 mV vs Ag/AgCl, pH 6.0
T1 construct: purchased TOYOBO
T1 sequence (P00433 31-338 limits assumed): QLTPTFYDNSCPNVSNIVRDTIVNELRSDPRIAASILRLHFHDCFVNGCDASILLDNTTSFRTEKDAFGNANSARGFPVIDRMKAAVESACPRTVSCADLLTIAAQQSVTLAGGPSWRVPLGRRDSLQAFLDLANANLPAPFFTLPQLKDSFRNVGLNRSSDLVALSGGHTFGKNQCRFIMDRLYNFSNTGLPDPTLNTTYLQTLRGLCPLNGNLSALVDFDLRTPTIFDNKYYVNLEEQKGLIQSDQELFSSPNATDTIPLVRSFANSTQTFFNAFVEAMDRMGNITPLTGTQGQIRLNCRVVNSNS
Protocol: Measurement of electron transfer activities of TCPD, THEPD, TDHPD, HTEPD, N,N-BHDPD, N,N'-BHPD, N,N'-BHDPD, and p-phenylenediamine derivatives having substituted amino group by reacting p-phenylenediamine with propyleneoxide--2
Horseradish peroxidase (HRPO, manufactured by TOYOBO) was dissolved in 0.1M phosphate buffer (pH 6.0) containing 0.1M NaCl to prepare 0M and 5.0×10^-7 M HRPO solutions. Also, hydrogen peroxide (manufactured by Wako Pure Chemical Industries) was dissolved in the same buffer to prepare a 1.0×10^-1 M solution. In the same manner, each of the TCPD, THEPD, TDHPD, HTEPD, N,N-BHDPD, N,N'-BHPD, N,N'-BHDPD, and p-phenylenediamine derivatives having substituted amino group by reacting p-phenylenediamine with propyleneoxide obtained in Synthesis Examples 1 to 9 was dissolved in the same buffer to prepare a 5.0×10^-3 M solution.
Each of these solutions was mixed in 0.1M phosphate buffer (pH 6.0) containing 0.1M NaCl in the following mixing ratio just before the measurement to prepare solutions of the following compositions A and B, and electric current was measured continuously in the presence (composition A) or absence (composition B) of HRPO.
Using the same apparatus of Test Example 2, electric current was measured in the presence (composition A) or absence (composition B) of HRPO for 5 or 10 minutes after application of potential of -80 mV (vs Ag/AgCl, the same shall apply hereinafter) in the case of TEPD, THEPD, and TDHPD, or -150 mV in the case of TCPD, HTEPD, N,N-BHDPD, N,N'-BHPD, N,N'-BHDPD, and p-phenylenediamine derivatives having substituted amino group by reacting p-phenylenediamine with propyleneoxide.

[2] = Measurement of vapor pressures (gas flow method); assay type: physicochemical; conditions: for vapor pressure: gas flow method
Protocol: Measurement of vapor pressures of p-phenylenediamine(PPD), N,N,N',N'-tetramethyl-p-phenylenediamine (TMPD), TEPD, TCPD, THEPD and TDHPD
The PPD(manufactured by Wakoh Junyaku K.K), TMPD (manufactured by Tokyo Kasei K.K), further, TEPD, TCPD, THEPD and TDHPO obtained in the course of the procedures of Synthesis Examples 1 to 4 were checked for their vapor pressures.
Vapor densities (amount of evaporation/volume) of the solid samples (PPD, TMPD, TEPD, TCPD, THEPD and TDHPD) were measured by contacting each sample heated to a predetermined temperature with a stream of carrier gas (nitrogen) and saturating the sample with vapor, and vapor pressures of TEPD and THEPD were calculated from the data on an assumption that the vapor follows the law of ideal gas (gas flow method). The vapor density was calculated by measuring evaporation rate (loss rate) of each sample using an electric balance, and the carrier gas flow rate using a flow meter.
The vapor pressure was calculated from the vapor density based on the following formula.
In the above formula, P represents vapor pressure (mmHg), k represents evaporation rate (mg/min), v represents carrier gas flow rate (ml/min), k/v represents vapor density (mg/ml), M represents molecular weight of each sample, π represents pressure of the system (mmHg) and V represents molar volume of carrier gas (l/mol).

Structure (SMILES) | function as electron mediator between HRPO and the electrode [1] | vapor pressure ([2]; at 25° C.) | vapor pressure lower than that of TEPD ([2]; at 25° C.) | property in drying (freeze-drying, vacuum drying, air-drying) and stability of dried states ([2]; compared with PPD, TMPD and TEPD, concluded from vapor pressures)
CCN(CC)c1ccc(N(CC)CC)cc1.Cl.Cl [TEPD, N,N,N',N'-tetraethyl-p-phenylenediamine dihydrochloride, reference compound] | function as a reversible electron mediator between HRPO and the electrode | 4.2×10^-4 mmHg |  | 
Cl.Cl.OCCN(CCO)c1ccc(N(CCO)CCO)cc1 [THEPD, N,N,N',N'-tetrakis-(2'-hydroxyethyl)-p-phenylenediamine dihydrochloride] | function as a reversible electron mediator between HRPO and the electrode | 1.3×10^-6 mmHg | about 300 times | superior to those of PPD, TMPD and TEPD
